# Data published in article PMC9103184, “Kunitz-Type Peptides from Sea Anemones Protect Neuronal Cells against Parkinson’s Disease Inductors via Inhibition of ROS Production and ATP-Induced P2X7 Receptor Activation” (International Journal of Molecular Sciences, 2022).
# Bridge positions count the residues as written; N and C are the ends. Ends that are not written are not given here.
# Legend:
# TRPV1 = settings: cited from earlier work
# 6-OHDA-treated cells = settings: 6-OHDA model; cited from earlier work
# trypsin [1] = target: T1, trypsin (Bos taurus, UniProt P00760); assay: Residual trypsin-inhibitory activity after heating; assay type: biochemical; settings: heating in the range from 60 °C to 100 °C; 7 μM peptide, 1.2 mM BAPNA, 37 °C, three parallel experiments
# T1 sequence (P00760 24-246): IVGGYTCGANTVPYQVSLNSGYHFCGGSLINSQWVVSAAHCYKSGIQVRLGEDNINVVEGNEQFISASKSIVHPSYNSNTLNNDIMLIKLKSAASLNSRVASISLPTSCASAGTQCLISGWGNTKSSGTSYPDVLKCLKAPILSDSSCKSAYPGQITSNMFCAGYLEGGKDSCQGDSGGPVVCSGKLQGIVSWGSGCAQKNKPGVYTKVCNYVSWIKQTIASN
# Experimental: Figure 6 The effects of temperature on the trypsin-inhibitory activity levels of peptides. Peptides were incubated at the temperatures for 30 min and their residual activities were measured.
# The temperature influence on the activity levels of peptides was assessed by measuring their residual inhibitory activity levels. After preincubation at temperatures ranging from 25 to 100 °C for 25 min, the peptide solutions were added to trypsin solution and the reaction mixtures were incubated for 10 min at 37 °C, then 1.2 mM BAPNA was added, followed by incubation at 37 °C for 30 min. The final concentration of the peptides was 7 μM. Substrate hydrolysis was measured at 410 nm. The residual activity was calculated based on the results of three parallel experiments according to the following equation [60]:% = (1 − residual enzyme activity/enzyme activity without inhibitor) × 100
# trypsin [2] = target: T1, trypsin; assay: Trypsin inhibition (BAPNA substrate, Dixon's method); assay type: biochemical; settings: BAPNA 0.6 and 1.2 mM, trypsin 208 nM, peptide 0–20 μM, three parallel experiments, read-out: trypsin inhibitory constant (Ki)
# Experimental: The trypsin-inhibitory activity of HCIQ1c9 was estimated according to the standard procedure using N-α-benzoyl-D,L-arginine p-nitroanilide (BAPNA) (Sigma-Aldrich, St. Louis, MO, USA) as a substrate. The trypsin inhibition constant was determined using Dyxon’s method using substrate concentrations of 0.6 and 1.2 mM. The trypsin concentration was 208 nM. The range of peptide concentrations was 0–20 μM. The constant was calculated based on the results of three parallel experiments. Computational error limits were in the range of 0.1–0.3%.
Substance,activity on TRPV1 (TRPV1),decrease in ROS production below the control (6-OHDA-treated cells),decrease in trypsin-inhibitory activity after heating (trypsin [1]),Ki (trypsin [2])
"HCRG21: Kunitz-type peptide from H. crispa, P0DL86; blocker of TRPV1 (RGICSEPKVVGPCTAYFRRFYFDSETGKCTPFIYGGCEGNGNNFETLRACRAICRA; UniProt P0DL86 1-56, looked up)",blocker of TRPV1,up to 87%,,
"IQGNICSEPKKVGRCRRSFPRFYFDSETGKCTPFIYGGCGGNGNNFETLHACRAICRA (disulfide 6-56, 15-39, 31-52) [HCIQ1c9]",,,30–70%,630 nM
